In paper PMC6691016, “Glycosylation influences activity, stability and immobilization of the feruloyl esterase 1a from Myceliophthora thermophila” (AMB Express, 2019):

Legend:
[1] = target: T1, P-Fae (MtFae1a produced in P. pastoris) (Thermothelomyces thermophilus, UniProt G2QND5); experiment: continuous absorbance assay at […] nm, non-linear regression; format: biochemical; settings: substrate inhibition constant; free enzyme, 100 mM sodium phosphate pH 7.0, 35 °C; 5% DMSO
T1 construct: gene Fae1a; mature (signal peptide, first 18 residues, removed); secreted from Pichia pastoris GS115 (vector pPNic706); no tag stated; N-glycosylated at Asn117 and Asn179 with larger glycans; calculated MW 29506 Da, 33 kDa on SDS-PAGE; homodimer only predicted
T1 sequence (G2QND5 19-291): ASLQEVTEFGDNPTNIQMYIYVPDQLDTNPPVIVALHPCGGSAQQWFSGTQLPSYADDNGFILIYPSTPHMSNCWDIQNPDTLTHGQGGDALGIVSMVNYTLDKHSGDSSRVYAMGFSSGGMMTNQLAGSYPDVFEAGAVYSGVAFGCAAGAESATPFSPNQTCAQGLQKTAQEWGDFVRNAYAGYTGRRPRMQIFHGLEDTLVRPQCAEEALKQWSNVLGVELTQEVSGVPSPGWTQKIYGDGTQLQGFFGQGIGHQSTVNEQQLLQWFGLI

[2] = target: T2, M-Fae (MtFae1a produced in M. thermophila) (Thermothelomyces thermophilus, UniProt G2QND5); experiment: as above; format: biochemical; settings: substrate inhibition constant; free enzyme, 100 mM sodium phosphate pH 7.0, 35 °C; 5% DMSO
T2 construct: gene Fae1a; mature (signal peptide, first 18 residues, removed); homologous over-production in M. thermophila C1; no tag stated; N-glycosylated at Asn117 and Asn179; calculated MW 29506 Da, 31 kDa on SDS-PAGE; homodimer only predicted
T2 sequence (G2QND5 19-291): as above

SMILES: COC(=O)/C=C/c1ccc(O)cc1 [MpCA, methyl p-coumarate]
- Ksi [1]: 1.84 ± 0.28 mM
- Ksi [2]: 1.46 ± 0.29 mM
